These results are taken from patent publication US5866118A, “Polypeptides having 3g6-phytase activity from thermomyces and nucleic acids encoding same” (Novo Nordisk Biotech, Inc., priority 1997, dated 1999).

Data set [1] has as its target T1, Aspergillus phytase (Aspergillus niger, UniProt P34752).
T1 sequence (P34752 24-467): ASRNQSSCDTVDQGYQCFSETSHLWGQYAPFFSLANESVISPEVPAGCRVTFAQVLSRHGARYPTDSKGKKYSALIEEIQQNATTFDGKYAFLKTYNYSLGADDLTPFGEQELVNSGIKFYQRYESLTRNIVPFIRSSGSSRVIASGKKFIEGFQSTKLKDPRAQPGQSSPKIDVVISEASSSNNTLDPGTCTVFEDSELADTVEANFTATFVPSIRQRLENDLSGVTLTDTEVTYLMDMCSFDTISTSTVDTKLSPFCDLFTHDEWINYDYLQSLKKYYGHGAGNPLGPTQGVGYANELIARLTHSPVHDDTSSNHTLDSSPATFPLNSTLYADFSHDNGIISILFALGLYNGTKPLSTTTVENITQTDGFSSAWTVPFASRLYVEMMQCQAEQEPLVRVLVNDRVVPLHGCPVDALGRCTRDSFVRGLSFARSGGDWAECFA
The following applies: Ullah, 1988, Preparative Biochemistry 18: 443-458; read-out: Ki (phosphate, competitive inhibitor); cited from earlier work.

The subject of data set [2] is Thermomyces lanuginosus CBS 586.94 phytase, purified recombinant, SEQ ID NO:2. Briefly: Steady-state kinetics by substrate titration, assay of inorganic phosphate liberated from corn phytic acid. Type of data set: biochemical. The method, then:
(§1) All characterizations were performed with the purified recombinant Thermomyces lanuginosus CBS 586.94 phytase described in Example 11. Comparisons were also made where noted with a standard of an Aspergillus niger (ficuum) phytase obtained from Novo Nordisk A/S, Bagsverd, Denmark.
(§2) Enzyme kinetics studies. Enzyme kinetics studies were performed on the Thermomyces phytase and the Aspergillus niger phytase. The studies were accomplished by assay of inorganic phosphate liberated from corn phytic acid (Sigma Chemical Co., St. Louis, Mo.). Standard enzyme reactions were carried out for 30 minutes at 37° C. and pH 5.5 in 0.5% w/w phytic acid. The reaction was quenched by the addition of an equal volume of 15% w/w trichloroacetic acid. After cooling, 100 μl of the resulting mixture was diluted into 1.0 ml of glass distilled water. The sample was incubated at 50° C. for 5 minutes. Color reagent (1.0 ml) was added and the 50° C. incubation was continued for 15 minutes. The absorbance of a 200 μl aliquot was measured at 690 nm with a Molecular Devices Thermomax Microplate Reader. The color reagent is composed of 6N sulfuric acid: water: 2.5% (w/v) ammonium heptamolybdate, tetrahydrate: 10% ascorbate (aqueous) in a ratio of 1:2:1:1 and prepared fresh on a daily basis. Quantitation was based on a standard curve generated with a 10 mM sodium monobasic phosphate standard. One unit U) is defined as a μmole of inorganic phosphate released per minute at 37° C. and pH 5.5.
Steady-state kinetics measurements were made by substrate titration. Phytate concentrations were 2.16, 1.08, 0.541, 0.216, 0.108, and 0.0758 mM for the purposes of Km determination. Phytate concentrations of 1.08, 0.541, 0.216 and 0.108 mM in the presence or absence of 1 mM sodium monobasic phosphate were used for the purpose of evaluating product inhibition.

Substrate in data set [3]: O=P(O)(O)O[C@H]1[C@H](OP(=O)(O)O)[C@@H](OP(=O)(O)O)[C@H](OP(=O)(O)O)[C@@H](OP(=O)(O)O)[C@H]1OP(=O)(O)O
The data set is described as above. The data set is classed as biochemical, Aspergillus niger (ficuum). The following applies: other: 37° C., pH 5.5, phytate 0.0758-2.16 mM. The method, then: as §1
as §2, with “One unit U) is defined as a μmole of inorganic phosphate released per minute at 37° C. and pH 5.5.” left out

In general, Ki refers to the dissociation constant of the complex between target and ligand, obtained from inhibition or displacement. With `O=P([O-])(O)O.[Na+]` [phosphate, sodium monobasic phosphate], the Ki is 1900 µM in data set [1] and over 3000 µM in data set [2] (estimated, phytate 0.108-1.08 mM with or without 1 mM sodium monobasic phosphate). In data set [2] (1 mM sodium monobasic phosphate, phytate 0.108-1.08 mM), the “product inhibition with 1 mM phosphate present” value is given as “failed to reveal any type of inhibition”.

A word on the Km: it is the concentration of substrate that gives half-maximal velocity. Consider `O=P(O)(O)O[C@H]1[C@H](OP(=O)(O)O)[C@@H](OP(=O)(O)O)[C@H](OP(=O)(O)O)[C@@H](OP(=O)(O)O)[C@H]1OP(=O)(O)O` [phytate, myo-inositol hexakisphosphate], for which the Km in data set [2] (37° C., pH 5.5, phytate 0.0758-2.16 mM, read-out: apparent Km with respect to phytate) is about 110 µM.

B1: Aspergillus niger (ficuum) phytase, standard obtained from Novo Nordisk A/S (Aspergillus niger) (protein)
chain: ASRNQSSCDTVDQGYQCFSETSHLWGQYAPFFSLANESVISPEVPAGCRVTFAQVLSRHGARYPTDSKGKKYSALIEEIQQNATTFDGKYAFLKTYNYSLGADDLTPFGEQELVNSGIKFYQRYESLTRNIVPFIRSSGSSRVIASGKKFIEGFQSTKLKDPRAQPGQSSPKIDVVISEASSSNNTLDPGTCTVFEDSELADTVEANFTATFVPSIRQRLENDLSGVTLTDTEVTYLMDMCSFDTISTSTVDTKLSPFCDLFTHDEWINYDYLQSLKKYYGHGAGNPLGPTQGVGYANELIARLTHSPVHDDTSSNHTLDSSPATFPLNSTLYADFSHDNGIISILFALGLYNGTKPLSTTTVENITQTDGFSSAWTVPFASRLYVEMMQCQAEQEPLVRVLVNDRVVPLHGCPVDALGRCTRDSFVRGLSFARSGGDWAECFA
notes: purchased Novo Nordisk A/S, Bagsverd, Denmark
With B1, in data set [3], the Km came to 200 µM.
